Test results reported in patent publication US20120196858A1, “METHOD OF PROMOTING APOPTOSIS AND INHIBITING METASTASIS” (Poniard Pharmaceuticals ,Inc., priority 2009, published 2012).
Like-named read-outs stand apart in the source and are kept apart here.

Assays:
[1] = biological target: T1, FAK Tyr-397 phosphorylation (Mus musculus, UniProt P34152); assay: Anti-phospho-specific immunoblotting of FAK pY397 in 4T1 cells; format: cell-based, murine
T1 construct: endogenous in cells; host or cells: 4T1 murine mammary carcinoma cells
Description: (§1) Immunoblotting: Protein extracts of cells were made using lysis buffer containing 1% Triton X-100, 1% sodium deoxycholate, and 0.1% SDS and were separated by 4-12% SDS-PAGE (sodium dodecyl sulfate polyacrylamide gel electrophoresis) and sequential immunoblotting performed as described in Mitra S K, Lim S T, Chi A, Schlaepfer D D. Intrinsic focal adhesion kinase activity controls orthotopic breast carcinoma metastasis via the regulation of urokinase plasminogen activator expression in a syngeneic tumor model. Oncogene 2006; 25:4429-40. Relative expression levels and phospho-specific antibody reactivity were measured by densitometry analyses of blots using Image J (version 1.42q). Inhibition of FAK and p130Cas tyrosine phosphorylation was quantified by calculating the ratio of pY397 FAK protein to total FAK. Similar analyses were performed for p130Cas using pY410 p130Cas and total p130Cas blot data.

[2] = test system: caspase 3 cleavage in 4T1 cells; assay: Cleaved caspase 3 immunoblotting of cell lysates; format: cell-based, murine; details: 24 h
Description: as §1, with “Similar analyses were performed for p130Cas using pY410 p130Cas and total p130Cas blot data.” left out
Cell pellets were resuspended in 300 p. […] Samples were analyzed by flow cytometry (FACSCalibur, Becton-Dickinson) and cell cycle analyses were performed by ModFit LT3.2 software (Verity software house). Hypodiploid DNA content as a measure of cell apoptosis was detected by PI staining as described ^29. […] Apoptosis was calculated to be the percent of annexin V-positive cells. In the soft agar assays, apoptosis was quantified by visual inspection of at least 200 cells and was defined as the appearance of membrane blebbing or cell shrinkage. […]

[3] = Pharmacokinetic (PK) evaluation in mice; format: in vivo, Balb/c mice
Procedure: Blood samples were collected via terminal heart puncture at 0.5, 1, 2, 4, 8, 12, 24 and 48 h for p.o. administration and 0.083, 0.25, 0.5, 1, 2, 4, 8, 12, 24 and 48 h for i.p. and i.v. administration. 3 mice per time point were used. For ad libitum administration, blood samples were collected after 7 days using five mice per group. Samples were collected in tubes containing 0.05 ml 0.5 M EDTA, centrifuged at 900×g for 15 min at room temperature, and the plasma collected. PND-1186 content was determined by high-performance liquid chromatography (HPLC) and mass spectroscopy analyses (see Supplemental Methods).

4T1 cells = assay: Soft agar colony growth and apoptosis assay; format: cell-based, murine
Procedure: Anchorage-dependent, spheroid, and soft agar cell growth assays: Cells (2×10^5) were plated per 35 mm well under adherent (tissue culture-treated) and non-adherent conditions (poly-HEMA-coated) in 6-well plates (Costar) in growth media. Between 24 and 168 h, all cells were collected, a single cell suspension was prepared by limited trypsin-EDTA treatment, and viable cells were enumerated by trypan blue staining and counting (ViCell XR, Beckman). For spheroid area determination, cells were imaged after 72 h in phase contrast using an Olympus IX51 microscope. Area was calculated using Image J software (version 1.43). For soft agar assays, 48-well plates were coated with a 1:4 mix of 2% agar (EM Science) in 0.2 ml growth media (bottom layer). 5×10^4 cells were plated per well (in triplicate) in a mixture of 0.3% agar in 0.2 ml growth media (top layer). […] After 10 days, colonies were imaged in phase contrast, enumerated by counting 9 fields (3 fields per well), and total area determined using Image J. For all analyses, experimental points were performed in triplicate and were experiments were repeated at least two times.
Cell pellets were resuspended in 300 p. 1 of PBS containing propidium iodide (PI) (10 μg/ml), DNAse-free RNAse (100 μg/ml, Qiagen), and then incubated at 37° C. with agitation for 1 h. Samples were analyzed by flow cytometry (FACSCalibur, Becton-Dickinson) and cell cycle analyses were performed by ModFit LT3.2 software (Verity software house). Hypodiploid DNA content as a measure of cell apoptosis was detected by PI staining as described ^29. […] Quadrant gates were positioned based on cell autofluorescence (negative) staurosporine-treated (positive) controls. Apoptosis was calculated to be the percent of annexin V-positive cells. In the soft agar assays, apoptosis was quantified by visual inspection of at least 200 cells and was defined as the appearance of membrane blebbing or cell shrinkage. Apoptosis was also detected by appearance of cleaved caspase-3 antibody reactivity in protein lysates by immunoblotting.

T1 sequence (P34152 whole entry): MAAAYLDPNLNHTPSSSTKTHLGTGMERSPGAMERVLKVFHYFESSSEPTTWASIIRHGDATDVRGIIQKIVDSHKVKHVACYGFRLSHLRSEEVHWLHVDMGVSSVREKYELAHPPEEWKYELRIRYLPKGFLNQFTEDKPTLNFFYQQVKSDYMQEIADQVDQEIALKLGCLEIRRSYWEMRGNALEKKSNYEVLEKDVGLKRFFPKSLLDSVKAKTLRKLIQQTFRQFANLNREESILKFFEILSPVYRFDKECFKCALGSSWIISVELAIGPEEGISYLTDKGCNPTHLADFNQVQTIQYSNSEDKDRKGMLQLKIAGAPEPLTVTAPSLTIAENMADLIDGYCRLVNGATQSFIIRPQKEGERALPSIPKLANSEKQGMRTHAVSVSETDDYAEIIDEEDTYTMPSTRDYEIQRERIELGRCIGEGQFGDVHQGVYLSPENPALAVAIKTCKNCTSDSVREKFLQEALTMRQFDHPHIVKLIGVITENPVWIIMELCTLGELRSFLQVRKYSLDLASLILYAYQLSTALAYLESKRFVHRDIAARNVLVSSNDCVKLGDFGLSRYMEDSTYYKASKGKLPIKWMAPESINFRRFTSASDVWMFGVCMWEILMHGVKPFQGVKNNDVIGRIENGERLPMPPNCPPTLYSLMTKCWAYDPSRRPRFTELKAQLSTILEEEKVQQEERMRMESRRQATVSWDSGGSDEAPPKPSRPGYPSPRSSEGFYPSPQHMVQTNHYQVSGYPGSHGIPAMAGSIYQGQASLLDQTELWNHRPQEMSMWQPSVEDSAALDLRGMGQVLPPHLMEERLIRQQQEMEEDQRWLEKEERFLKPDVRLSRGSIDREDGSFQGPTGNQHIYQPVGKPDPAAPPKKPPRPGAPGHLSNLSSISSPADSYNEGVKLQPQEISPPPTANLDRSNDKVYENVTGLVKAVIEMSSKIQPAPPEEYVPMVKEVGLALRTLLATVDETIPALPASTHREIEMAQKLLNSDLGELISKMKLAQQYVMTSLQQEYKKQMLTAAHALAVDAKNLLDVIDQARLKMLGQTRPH

## CNC(=O)c1ccccc1Nc1cc(Nc2ccc(N3CCOCC3)cc2OC)ncc1C(F)(F)F [PND-1186]
[1]; 0.1 μM, 3D spheroids
  FAK pY397 phosphorylation in 4T1 spheroids: potently inhibited
[1]; 0.1 μM, 24 h
  FAK pY397 phosphorylation, adherent and suspended cells: sufficient to inhibit FAK pY397 phosphorylation
[1]; 4T1 cells, 0.1 to 1.0 μM, 1 h
  maximal reduction of FAK pY397 phosphorylation: ~80%
[2]
  cleaved caspase 3, adherent cells: not detectable
  cleaved caspase 3, suspended cells: increased in PND-1186-treated suspended cells (maximal at 0.4 μM)
[3]; 0.5 mg/ml ad libitum, mice
  CSS: 1.16 µM
[3]; 2 mg/kg i.v., mice
  AUC(0-inf): 6,960 ng · h/mL
  Cl: 287 mL/h/kg
  Vd: 714 mL/kg
  t1/2: 1.72 h
[3]; 30 mg/kg i.p., mice
  AUC(0-inf): 32,500 ng · h/mL
  Cmax: 34.8 µM
  TMAX: 15 min
  t1/2: 2.27 h
[3]; 100 mg/kg i.p., mice
  AUC(0-inf): 147,000 ng · h/mL
  Cmax: 117 µM
  TMAX: 30 min
  t1/2: 2.65 h
[3]; 150 mg/kg oral, by 4 h
  maximal plasma level: ~14 µM
[3]; 150 mg/kg oral, for 12 h
  sustained plasma level: above 3 μM
[3]; 150 mg/kg p.o., mice
  AUC(0-inf): 77,400 ng · h/mL
  Cmax: 14 µM
  TMAX: 240 min
  t1/2: 2.15 h
[3]; Balb/c, mouse, plasma, oral, 0.5 mg/kg, 0.5 mg/ml ad libitum, mice, read-out: AUC(0-inf)
  AUC(0-inf): 13.1 ng·h/mL
[3]; i.p. and p.o. dosing
  bioavailability (% F): 14.8 to 42.2%
  terminal half lives (t1/2): 2.15 to 2.65 h
[3]; mouse, in vivo
  dose dependence of plasma concentrations, Cmax and AUC(0-inf): increased in a linear fashion as a function of dose
4T1 cells; 0.2 μM, soft agar
  4T1 cell apoptosis (membrane blebbing and cell shrinkage): > 50%
4T1 cells; 10 days, dose-dependent
  total number and size of soft agar colonies: inhibited both the total number and size
4T1 cells; Mus musculus, 4T1, 240 h, 0.2 μM, 10 days, read-out: inhibition of soft agar colony size
  inhibition at 0.2 µM: 77%
